Holding throughout (format): functional, organism-based
Assay [1] has as its system Human adenovirus D37. Kind of assay: Inhibition of 35S-labeled Human adenovirus 37 1477 virion binding to human HCE cells at 1:9 compound to PDA ratio formulation prepared by extrusion method after 1 hr by scintillation counting. The note with it: Human mastadenovirus D, 1477, HCE.
Assay [2] relates to Human adenovirus D37. Kind of assay: Inhibition of 35S-labeled Human adenovirus 37 1477 virion binding to human HCE cells at 1:9 compound to PDA ratio formulation prepared by probe sonication method after 1 hr by scintillation counting. The note with it: Human mastadenovirus D, 1477, HCE.
The subject of assay [3] is Human adenovirus D37. In words: Inhibition of 35S-labeled Human adenovirus 37 1477 virion binding to human HCE cells at 0.1:9.9 compound to PDA ratio formulation prepared by probe sonication method after 1 hr by scintillation counting. The note with it: Human mastadenovirus D, 1477, HCE.
In assay [4] the test system is Human adenovirus D37. Kind of assay: Inhibition of 35S-labeled Human adenovirus 37 1477 virion binding to human HCE cells at 0.5:9.5 compound to PDA ratio formulation prepared by probe sonication method after 1 hr by scintillation counting. The note with it: Human mastadenovirus D, 1477, HCE.
Assay [5] has as its system Human adenovirus D37. Kind of assay: Inhibition of 35S-labeled Human adenovirus 37 1477 virion binding to human HCE cells at 2:8 compound to PDA ratio formulation prepared by extrusion method after 1 hr by scintillation counting. The conditions noted are these: Human mastadenovirus D, 1477, HCE.
Assay [6] deals with Human adenovirus D37. In words: Antiviral activity against Human adenovirus 37 1477 in human HCE cells assessed as inhibition of viral infection to host cells after 44 hrs by immunofluorescence microscopic analysis. The conditions noted are these: Human mastadenovirus D, 1477, HCE.
Assay [7] concerns Human adenovirus D37. Kind of assay: Induction of 35S-labeled Human adenovirus 37 1477 aggregation by liquid scintillation counting.
Assay [8] has as its system Human adenovirus D37. Kind of assay: Induction of Human adenovirus 37 1477 aggregation by negative staining transmission electron microscopy.

Active and inactive are the calls of the source. No cut-off for these calls is given here.

The term IC50 denotes the concentration at which inhibition is half-maximal. For the molecule `CCCCCCCCCCCCC#CC#CCCCCCCCCC(=O)NCCOCCOCCOCCOCCOCCOCCOCCOCCOCCOCCOCCOCCC(=O)NCCCCCO[C@]1(C(=O)O)C[C@H](O)[C@@H](NC(C)=O)[C@H]([C@H](O)[C@H](O)CO)O1`, in the assay with Human adenovirus D37 [1], the IC50 turned out to be 7 µM.

Take `CCCCCCCCCCCCCCCCCCCCCCCC(=O)NCCOCCOCCOCCOCCOCCC(=O)NCCCCCO[C@]1(C(=O)O)C[C@H](O)[C@@H](NC(C)=O)[C@H]([C@H](O)[C@H](O)CO)O1`: the IC50 with Human adenovirus D37 [1] was 21 µM.

`CCCCCCCCCCCCCCCCCC(=O)NCCOCCOCCOCCOCCOCCC(=O)NCCCCCO[C@]1(C(=O)O)C[C@H](O)[C@@H](NC(C)=O)[C@H]([C@H](O)[C@H](O)CO)O1`: the IC50 in the assay on Human adenovirus D37 [1] was greater than 50 µM.

In the case of `CCCCCCCCCCCCC#CC#CCCCCCCCCC(=O)NCCOCCOCCOCCC(=O)NCCCCCO[C@]1(C(=O)O)C[C@H](O)[C@@H](NC(C)=O)[C@H]([C@H](O)[C@H](O)CO)O1`, the IC50 with Human adenovirus D37 [1] was greater than 50 µM.

With `CCCCCCCCCCCCC#CC#CCCCCCCCCC(=O)NCCOCCOCCOCCOCCOCCC(=O)NCCCCCO[C@]1(C(=O)O)C[C@H](O)[C@@H](NC(C)=O)[C@H]([C@H](O)[C@H](O)CO)O1`, the IC50 in the assay with Human adenovirus D37 [2] was 0.9 µM; with Human adenovirus D37 [3] it was greater than 5 µM; in the assay on Human adenovirus D37 [4] it was less than 25 µM; in the assay with Human adenovirus D37 [5], 26 µM; in the assay with Human adenovirus D37 [1] it was 4 µM; in the assay with Human adenovirus D37 [6] it was 0.7 µM. For the same molecule, the result in the assay on Human adenovirus D37 [7] and with Human adenovirus D37 [8] was Active.

For the origin of these results see ChEMBL document CHEMBL1914321, “Molecular wipes: application to epidemic keratoconjuctivitis” (J Med Chem, 2011).
